This is an account of results in patent US9815796B2 (Merck Sharp & Dohme Corp., priority 2013, dated 2017).

SMILES strings stand for the structures.

In one assay the target is human PDE2A1 (Homo sapiens (Human), UniProt O00408). Description: IMAP FP PDE selectivity panel, human PDE2A1. The following applies: Human PDE2, Lab B; read-out: Human PDE2 Ki (nM) - Lab B. Format: biochemical. As to the method:
Selectivity for PDE2, as compared to other PDE families, was assessed using the IMAP® technology. Human PDE 10A2 enzyme was prepared from cytosolic fractions of transiently transfected HEK cells. All other PDE's were GST Tag human enzyme expressed in insect cells and were obtained from BPS Bioscience (San Diego, Calif.): PDE1A (Cat#60010), human PDE2A1 (Cat#60020), PDE3A (Cat#60030), PDE4A1A (Cat#60040), PDE5A1 (Cat#60050), PDE6C (Cat#60060), PDE7A (Cat#60070), PDE8A1 (Cat#60080), PDE9A2 (Cat#60090), PDE11A4 (Cat#60110).
Assays for PDE 1 through 11 were performed in parallel at room temperature in 384-well microtiter plates with an incubation volume of 20.2 μL. Solutions of test compounds were prepared in DMSO and serially diluted with DMSO to yield 30 μL of each of ten solutions differing by 3-fold in concentration, at 32 serial dilutions per plate. […] A Labcyte POD 810 (Labcyte, Sunnyvale, Calif.) was used to dispense 200 nL from each well of the titration plate to make eleven copies of the assay plate for each titration, one copy for each PDE enzyme. A solution of each enzyme (dilution from aliquots, sufficient to produce 20% substrate conversion) and a separate solution of FAM-labeled cAMP or FAM-labeled cGMP from Molecular Devices (Sunnyvale, Calif., product # R7506 or cGMP#R7508), at a final concentration of 50 nM were made in the assay buffer (10 mM Tris HCl, pH 7.2, 10 mM MgCl2, 0.05% NaN3 0.01% Tween-20, and 1 mM DTT). Note that the substrate for PDE2 is 50 nM FAM cAMP containing 1000 nM of cGMP. The enzyme and the substrate were then added to the assay plates in two consecutive additions of 10 μL and then shaken to mix. The reaction was allowed to proceed at room temperature for 60 minutes. A binding solution was then made from the kit components, comprised of 80% Solution A, 20% Solution B and binding reagent at a volume of 1/600 the total binding solution. The enzymatic reaction was stopped by addition of 60 μL of the binding solution to each well of the assay plate. The plates were sealed and shaken for 10 seconds. The plates were incubated at room temperature for one hour, then the parallel and perpendicular fluorescence was measured using a Tecan Genios Pro plate reader (Tecan, Switzerland). The apparent inhibition constants for the compounds against all 11 PDE's was determined from the parallel and perpendicular fluorescent readings as described for PDE10 FP assay using the following apparent KM values for each enzyme and substrate combination: PDE1A (FAM cGMP) 70 nM, human PDE2A1 (FAM cAMP) 10,000 nM, PDE3A (FAM cAMP) 50 nM, PDE4A1A (FAM cAMP) 1500 nM, PDE5A1 (FAM cGMP) 400 nM, PDE6C (FAM cGMP) 700 nM, PDE7A (FAM cAMP) 150 nM, PDE8A1 (FAM cAMP) 50 nM, PDE9A2 (FAM cGMP) 60 nM, PDE10A2 (FAM cAMP) 150 nM, PDE11A4 (FAM cAMP) 1000 nM. The intrinsic PDE2 inhibitory activity of a compound which may be used in accordance with the present invention may be determined by these assays.

A further assay deals with Rhesus PDE2A3 (Macaca mulatta, UniProt B3VTJ2). Description: PDE2 fluorescence polarization (IMAP FP) inhibition assay, rhesus enzyme. Conditions: Rhesus PDE2, Lab B; read-out: Rhesus PDE2 Ki (nM) - Lab B. Format: biochemical, rhesus macaque. The gist of the method: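 Rhesus PDE2A3 came from lysate of transiently transfected AD293 cells, diluted to give 20% substrate conversion. Substrate was 50 nM FAM-cAMP with 1 uM cGMP activator in Tris pH 7.2/MgCl2 buffer, run 60 min at room temperature over 10-point 3-fold dilutions in 1% DMSO. Read-out was IMAP fluorescence polarization (mP) after ≥1 h binding.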
Chain of Rhesus PDE2A3 (B3VTJ2 1-941): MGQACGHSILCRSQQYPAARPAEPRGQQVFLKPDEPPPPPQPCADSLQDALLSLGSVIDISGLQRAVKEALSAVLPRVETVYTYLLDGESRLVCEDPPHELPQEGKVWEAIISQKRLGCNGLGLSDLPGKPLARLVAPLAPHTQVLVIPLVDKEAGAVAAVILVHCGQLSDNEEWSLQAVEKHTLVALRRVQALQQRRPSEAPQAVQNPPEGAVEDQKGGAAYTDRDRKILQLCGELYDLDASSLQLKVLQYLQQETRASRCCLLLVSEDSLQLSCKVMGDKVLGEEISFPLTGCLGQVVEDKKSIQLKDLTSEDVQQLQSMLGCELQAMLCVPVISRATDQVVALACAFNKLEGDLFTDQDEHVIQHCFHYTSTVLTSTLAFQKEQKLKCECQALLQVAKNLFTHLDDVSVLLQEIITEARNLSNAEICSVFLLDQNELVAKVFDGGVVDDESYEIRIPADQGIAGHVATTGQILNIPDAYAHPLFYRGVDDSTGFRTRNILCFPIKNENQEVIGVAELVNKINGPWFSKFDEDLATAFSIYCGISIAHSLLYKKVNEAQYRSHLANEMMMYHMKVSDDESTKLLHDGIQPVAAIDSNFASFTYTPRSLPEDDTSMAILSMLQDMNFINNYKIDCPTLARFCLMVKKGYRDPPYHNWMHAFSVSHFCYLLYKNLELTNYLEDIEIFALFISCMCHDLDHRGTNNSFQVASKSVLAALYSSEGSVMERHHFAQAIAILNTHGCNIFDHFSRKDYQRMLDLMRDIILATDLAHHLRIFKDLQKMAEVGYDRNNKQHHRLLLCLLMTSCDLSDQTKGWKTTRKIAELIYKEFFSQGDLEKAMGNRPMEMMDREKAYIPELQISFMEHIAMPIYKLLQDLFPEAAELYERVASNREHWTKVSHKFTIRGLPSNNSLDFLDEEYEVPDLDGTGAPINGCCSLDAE
A general note: Polarisation of emitted light reports the rotation of a fluorescent probe.

Chain of human PDE2A1 (O00408 other isoform, or with tags, fused parts or gaps): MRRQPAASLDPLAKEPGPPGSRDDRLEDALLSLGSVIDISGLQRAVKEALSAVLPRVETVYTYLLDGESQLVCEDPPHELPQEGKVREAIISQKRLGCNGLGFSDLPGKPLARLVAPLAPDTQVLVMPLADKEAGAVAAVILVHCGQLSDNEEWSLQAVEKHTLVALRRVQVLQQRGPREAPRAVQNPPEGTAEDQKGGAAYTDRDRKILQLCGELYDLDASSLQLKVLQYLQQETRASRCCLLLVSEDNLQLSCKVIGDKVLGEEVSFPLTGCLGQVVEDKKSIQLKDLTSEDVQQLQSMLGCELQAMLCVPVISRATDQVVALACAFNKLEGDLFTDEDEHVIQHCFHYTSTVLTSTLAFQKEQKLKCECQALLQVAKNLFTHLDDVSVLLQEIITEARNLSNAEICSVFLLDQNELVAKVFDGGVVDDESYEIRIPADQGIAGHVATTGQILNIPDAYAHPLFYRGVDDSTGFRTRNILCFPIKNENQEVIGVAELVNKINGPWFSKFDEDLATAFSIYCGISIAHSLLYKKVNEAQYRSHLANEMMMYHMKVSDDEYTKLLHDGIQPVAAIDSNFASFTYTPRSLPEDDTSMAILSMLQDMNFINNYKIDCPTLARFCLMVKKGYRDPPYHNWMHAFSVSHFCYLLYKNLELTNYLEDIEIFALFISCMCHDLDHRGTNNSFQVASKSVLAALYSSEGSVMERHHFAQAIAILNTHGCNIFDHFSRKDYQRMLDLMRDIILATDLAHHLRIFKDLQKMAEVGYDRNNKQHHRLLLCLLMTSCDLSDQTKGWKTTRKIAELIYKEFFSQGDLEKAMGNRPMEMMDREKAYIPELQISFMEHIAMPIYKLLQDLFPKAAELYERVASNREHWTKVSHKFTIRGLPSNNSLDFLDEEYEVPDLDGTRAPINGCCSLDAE

As to `CC[C@@H](NC(=O)c1cc(=O)[nH]c(C)n1)c1ccc2c(c1)OC(F)(F)O2` [Example 632, N-[(1R)-1-(2,2-difluoro-1,3-benzodioxol-5-yl)propyl]-2-methyl-6-oxo-1,6-dihydropyrimidine-4-carboxamide], the Ki at human PDE2A1 worked out at 106 nM.

As to `Cc1nc(C(=O)N[C@]2(c3ccc(C(F)(F)F)cc3)C[C@@H]2C)cc(=O)[nH]1` (single isomer, unassigned) [Example 671, 2-methyl-N-{2-methyl-1-[4-(trifluoromethyl)phenyl)cyclopropyl}-6-oxo-1,6-dihydropyrimidine-4-carboxamide], the Ki at human PDE2A1 is 14 nM.

Take `O=C(N[C@@H](c1ccc2c(c1)OC(F)(F)O2)C1CC1)c1cc(=O)[nH]c(-c2ncccn2)n1` [Example 591, N-[(R)-cyclopropyl(2,2-difluoro-1,3-benzodioxol-5-yl)methyl]-6-oxo-1,6-dihydro-2,2′-bipyrimidine-4-carboxamide]: on human PDE2A1, the Ki was 30 nM.

Turning to `Cc1nc(C(=O)NC2(c3ccc(CC(F)(F)F)cc3)CC2)cc(=O)[nH]1` [Example 627, 2-methyl-6-oxo-N-{1-[4-(2,2,2-trifluoroethyl)phenyl]cyclopropyl}-1,6-dihydropyrimidine-4-carboxamide], at human PDE2A1, the Ki stood at 46 nM.

On to `CC(C)(C)[C@@H](NC(=O)c1cc(=O)[nH]c(-c2ccccc2)n1)c1ccc(C2CC2)c(F)c1` [Example 539, N-[(1R)-1-(4-cyclopropyl-3-fluorophenyl)-2,2-dimethylpropyl]-6-oxo-2-phenyl-1,6-dihydropyrimidine-4-carboxamide], for which the Ki at human PDE2A1 was 1.2 nM.

Take `CC1([C@@H](NC(=O)c2cc(=O)[nH]c(-c3ccccc3)n2)c2ccc(OC(F)F)cc2)CC1` [Example 548, N-[(R)-[4-(difluoromethoxy)phenyl](1-methylcyclopropyl)methyl]-6-oxo-2-phenyl-1,6-dihydropyrimidine-4-carboxamide]: on human PDE2A1, the Ki is 4.5 nM.

Take `CC(C)(NC(=O)c1cc(=O)[nH]c(-c2ncccn2)n1)c1ccc(OC(F)(F)F)cc1F` [Example 574, N-{1-[2-fluoro-4-(trifluoromethoxy)phenyl]-1-methylethyl}-6-oxo-1,6-dihydro-2,2′-bipyrimidine-4-carboxamide]: the Ki at human PDE2A1 amounted to 831 nM.

In the case of `CC(NC(=O)c1cc(=O)[nH]c(-c2ncccn2)n1)c1ccc(C(C)(C)C(F)(F)F)cc1` (single isomer, unassigned) [Example 701, (R)- or (S)-6-oxo-N-(1-(4-(1,1,1-trifluoro-2-methylpropan-2-yl)phenyl)ethyl)-1,6-dihydro-[2,2′-bipyrimidine]-4-carboxamide], the Ki on human PDE2A1 worked out at 127 nM.

On to `CC(C)(C)C(NC(=O)c1cc(=O)[nH]c(-c2ncco2)n1)c1ccc(C(F)(F)F)cc1` (single isomer, unassigned) [Example 682, (R)- or (S)-N-(2,2-dimethyl-1-(4-(trifluoromethyl)phenyl)propyl)-2-(oxazol-2-yl)-6-oxo-1,6-dihydropyrimidine-4-carboxamide], for which the Ki on human PDE2A1 was found to be 48 nM.

For the compound `CC(NC(=O)c1cc(=O)[nH]c(-c2ccccc2)n1)c1ccc(C(C)(C)C(F)(F)F)cc1` (single isomer, unassigned) [Example 699, (R)- or (S)-6-oxo-2-phenyl-N-(1-(4-(1,1,1-trifluoro-2-methylpropan-2-yl)phenyl)ethyl)-1,6-dihydropyrimidine-4-carboxamide], the Ki at human PDE2A1 is 103 nM.

In the case of `O=C(NC1(c2ccc(S(F)(F)(F)(F)F)cc2)CC1)c1cc(=O)[nH]c(-c2ccccc2)n1` [Example 553, 6-oxo-N-{1-[4-(pentafluoro-λ^6-sulfanyl)phenyl]cyclopropyl}-2-phenyl-1,6-dihydropyrimidine-4-carboxamide], the Ki at human PDE2A1 was determined as 10 nM.

In the case of `C[C@@H](NC(=O)c1cc(=O)[nH]c(-c2nccs2)n1)c1ccc(C(F)(F)F)cc1` [Example 674, (R)-6-oxo-2-(thiazol-2-yl)-N-(1-(4-(trifluoromethyl)phenyl)ethyl)-1,6-dihydropyrimidine-4-carboxamide], the Ki at Rhesus PDE2A3 amounted to 583 nM.

As usually defined, the Ki is the equilibrium dissociation constant of an inhibitor or competing ligand from its target.
